Measured values taken from patent US12540120B2, “Herbicidal compounds” (SYNGENTA CROP PROTECTION AG, priority 2019, dated 2026).

Key:
Format in all cases: in vivo
[1] = tested on: Abutilon theophrasti (ABUTH); assay: B3 Post-Emergence Efficacy—Test 3; settings: post-emergence application, 250 g/ha, evaluated after 13 days (Test 3)
Method: (§1) B3 Post-Emergence Efficacy—Test 3 Seeds of a variety of test species are sown in standard soil in pots:—Amaranthus retoflexus (AMARE), Setaria faberi (SETFA), Echinochloa crus-galli (ECHCG), Ipomoea hederacea (IPOHE), Zea Mays (ZEAMX), Abutilon theophrasti (ABUTH). After 8 days cultivation (post-emergence) under controlled conditions in a glasshouse (at 24/16° C., day/night; 14 hours light; 65% humidity), the plants are sprayed with an aqueous spray solution derived from the formulation of the technical active ingredient in acetone/water (50:50) solution containing 0.5% Tween 20 (polyoxyethylene sorbitan monolaurate, CAS RN 9005-64-5). Compounds are applied at 250 g/ha. The test plants are then grown in a glasshouse under controlled conditions in a glasshouse (at 24/16° C., day/night; 14 hours light; 65% humidity) and watered twice daily. After 13 days, the test is evaluated for the percentage damage caused to the plant. The biological activities are assessed on a five point scale (5=80-100%; 4=60-79%; 3=40-59%; 2=20-39%; 1=0-19%). A blank value in the table is indicative that the compound was not tested on that species.

[2] = tested on: Amaranthus retoflexus (AMARE); assay: B3 Post-Emergence Efficacy—Test 3; settings: post-emergence application, 250 g/ha, evaluated after 13 days (Test 3)
Method: as §1

[3] = tested on: Ipomoea hederacea (IPOHE); assay: B3 Post-Emergence Efficacy—Test 3; settings: post-emergence application, 250 g/ha, evaluated after 13 days (Test 3)
Method: as §1

Setaria faberi (SETFA) [4] = assay: B3 Post-Emergence Efficacy—Test 3; settings: post-emergence application, 250 g/ha, evaluated after 13 days (Test 3)
Method: as §1

Zea Mays (ZEAMX) [5] = assay: B3 Post-Emergence Efficacy—Test 3; settings: post-emergence application, 250 g/ha, evaluated after 13 days (Test 3)
Method: as §1

[6] = tested on: Abutilon theophrasti (ABUTH); assay: B6 Pre-Emergence Efficacy—Test 3; settings: pre-emergence application, 250 g/ha, evaluated after 13 days (Test 3)
Method: (§2) B6 Pre-Emergence Efficacy—Test 3 Seeds of a variety of test species were sown in standard soil in pots: Amaranthus retoflexus (AMARE), Setaria faberi (SETFA), Echinochloa crus-galli (ECHCG), Ipomoea hederacea (IPOHE), Zea Mays (ZEAMX), Abutilon theophrasti (ABUTH). After cultivation for one day (pre-emergence) under controlled conditions in a glasshouse (at 24/16° C., day/night; 14 hours light; 65% humidity), the plants were sprayed with an aqueous spray solution derived from the formulation of the technical active ingredient in acetone/water (50:50) solution containing 0.5% Tween 20 (polyoxyethelyene sorbitan monolaurate, CAS RN 9005-64-5). Compounds are applied at 250 g/ha. The test plants were then grown in a glasshouse under controlled conditions (at 24/16° C., day/night; 14 hours light; 65% humidity) and watered twice daily. After 13 days, the test is evaluated for the percentage damage caused to the plant. The biological activities are assessed on a five point scale (5=80-100%; 4=60-79%; 3=40-59%; 2=20-39%; 1=0-19%). A blank value in the table is indicative that the compound was not tested on that species.

[7] = tested on: Amaranthus retoflexus (AMARE); assay: B6 Pre-Emergence Efficacy—Test 3; settings: pre-emergence application, 250 g/ha, evaluated after 13 days (Test 3)
Method: as §2

[8] = tested on: Ipomoea hederacea (IPOHE); assay: B6 Pre-Emergence Efficacy—Test 3; settings: pre-emergence application, 250 g/ha, evaluated after 13 days (Test 3)
Method: as §2

Setaria faberi (SETFA) [9] = assay: B6 Pre-Emergence Efficacy—Test 3; settings: pre-emergence application, 250 g/ha, evaluated after 13 days (Test 3)
Method: as §2

Zea Mays (ZEAMX) [10] = assay: B6 Pre-Emergence Efficacy—Test 3; settings: pre-emergence application, 250 g/ha, evaluated after 13 days (Test 3)
Method: as §2

[11] = tested on: Amaranthus retoflexus (AMARE); assay: B2 Post-Emergence Efficacy—Test 2; settings: post-emergence application, 250 g/ha, evaluated after 13 days (Test 2)
Summary of the method: (§3)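 Pot-grown plants, sown in standard soil and raised 8 days in a glasshouse (24/16 °C day/night, 14 h light, 65% humidity), were sprayed post-emergence at 250 g/ha from acetone/water (50:50) with 0.5% Tween 20. Percentage damage was scored 13 days later on a five-point scale (5=80-100%; 1=0-19%).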

[12] = tested on: Echinochloa crus-galli (ECHCG); assay: B2 Post-Emergence Efficacy—Test 2; settings: post-emergence application, 250 g/ha, evaluated after 13 days (Test 2)
Summary of the method: as §3

[13] = tested on: Ipomoea hederacea (IPOHE); assay: B2 Post-Emergence Efficacy—Test 2; settings: post-emergence application, 250 g/ha, evaluated after 13 days (Test 2)
Summary of the method: as §3

Lolium perenne (LOLPE) [14] = assay: B2 Post-Emergence Efficacy—Test 2; settings: post-emergence application, 250 g/ha, evaluated after 13 days (Test 2)
Summary of the method: as §3

Setaria faberi (SETFA) [15] = assay: B2 Post-Emergence Efficacy—Test 2; settings: post-emergence application, 250 g/ha, evaluated after 13 days (Test 2)
Summary of the method: as §3

Solanum nigrum (SOLNI) [16] = assay: B2 Post-Emergence Efficacy—Test 2; settings: post-emergence application, 250 g/ha, evaluated after 13 days (Test 2)
Summary of the method: as §3

[17] = tested on: Amaranthus retoflexus (AMARE); assay: B5 Pre-Emergence Efficacy—Test 2; settings: 250 g/ha, evaluated after 13 days
Summary of the method: (§4)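 Scores are percentage plant damage on a five-point scale (5=80-100%; 4=60-79%; 3=40-59%; 2=20-39%; 1=0-19%), taken 13 days after a pre-emergence spray of 250 g/ha. Sowing preceded spraying by one day; glasshouse at 24/16 °C, 65% humidity.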

Solanum nigrum (SOLNI) [18] = assay: B5 Pre-Emergence Efficacy—Test 2; settings: 250 g/ha, evaluated after 13 days
Summary of the method: as §4

[19] = tested on: Echinochloa crus-galli (ECHCG); assay: B5 Pre-Emergence Efficacy—Test 2; set-up: key: 5-point scale: 5=80-100%, 4=60-79%, 3=40-59%, 2=20-39%, 1=0-19% damage; settings: 250 g/ha, evaluated after 13 days
Summary of the method: as §4

[20] = tested on: Ipomoea hederacea (IPOHE); assay: B5 Pre-Emergence Efficacy—Test 2; set-up: key: 5-point scale: 5=80-100%, 4=60-79%, 3=40-59%, 2=20-39%, 1=0-19% damage; settings: 250 g/ha, evaluated after 13 days
Summary of the method: as §4

Lolium perenne (LOLPE) [21] = assay: B5 Pre-Emergence Efficacy—Test 2; set-up: key: 5-point scale: 5=80-100%, 4=60-79%, 3=40-59%, 2=20-39%, 1=0-19% damage; settings: 250 g/ha, evaluated after 13 days
Summary of the method: as §4

Setaria faberi (SETFA) [22] = assay: B5 Pre-Emergence Efficacy—Test 2; set-up: key: 5-point scale: 5=80-100%, 4=60-79%, 3=40-59%, 2=20-39%, 1=0-19% damage; settings: 250 g/ha, evaluated after 13 days
Summary of the method: as §4

Row | SMILES | percentage damage caused to the plant, five point scale, AMARE [11] | percentage damage caused to the plant, five point scale, ECHCG [12] | percentage damage caused to the plant, five point scale, IPOHE [13] | percentage damage caused to the plant, five point scale, LOLPE (Lolium perenne (LOLPE) [14]) | percentage damage caused to the plant, five point scale, SETFA (Setaria faberi (SETFA) [15]) | percentage damage caused to the plant, five point scale, SOLNI (Solanum nigrum (SOLNI) [16]) | Control of weed species after pre-emergence application, AMARE (percentage damage, five point scale) [17] | Control of weed species after pre-emergence application, SOLNI (percentage damage, five point scale) (Solanum nigrum (SOLNI) [18]) | Control of weed species after pre-emergence application, ECHCG (percentage damage, five point scale) [19] | Control of weed species after pre-emergence application, IPOHE (percentage damage, five point scale) [20] | Control of weed species after pre-emergence application, LOLPE (percentage damage, five point scale) (Lolium perenne (LOLPE) [21]) | Control of weed species after pre-emergence application, SETFA (percentage damage, five point scale) (Setaria faberi (SETFA) [22]) | other results
1 | Cc1nn(C)c(=O)c(-c2c(F)ccc(Cl)c2CCc2ccc(S(N)(=O)=O)cc2)c1O [Compound A-1.391] | – | – | – | – | – | – | – | – | – | – | – | – | percentage damage caused to the plant, five point scale, ABUTH [1]: 2 (2=20-39%); percentage damage caused to the plant, five point scale, AMARE [2]: 4 (4=60-79%); percentage damage caused to the plant, five point scale, IPOHE [3]: 3 (3=40-59%); percentage damage caused to the plant, five point scale, SETFA (Setaria faberi (SETFA) [4]): 4 (4=60-79%); percentage damage caused to the plant, five point scale, ZEAMX (Zea Mays (ZEAMX) [5]): 1 (1=0-19%); percentage damage caused to the plant, five point scale, ABUTH [6]: 2 (2=20-39%); percentage damage caused to the plant, five point scale, AMARE [7]: 5 (5=80-100%); percentage damage caused to the plant, five point scale, IPOHE [8]: 2 (2=20-39%); percentage damage caused to the plant, five point scale, SETFA (Setaria faberi (SETFA) [9]): 5 (5=80-100%); percentage damage caused to the plant, five point scale, ZEAMX (Zea Mays (ZEAMX) [10]): 0
2 | CCN(C)C(=O)c1ccc(CCc2c(Cl)ccc(F)c2-c2c(OC(=O)C(C)C)c(C)nn(C)c2=O)cc1F [Compound A-3.028, [5-[3-Chloro-2-[2-[4-[ethyl(methyl)carbamoyl]-3-fluoro-phenyl]ethyl]-6-fluoro-phenyl]-1,3-dimethyl-6-oxo-pyridazin-4-yl] 2-methylpropanoate] | 4 (4=60-79%) | 5 (5=80-100%) | 5 (5=80-100%) | 5 (5=80-100%) | 4 (4=60-79%) | 5 (5=80-100%) | 5 (5=80-100%) | 5 (5=80-100%) | 5 (5=80-100%) | 5 (5=80-100%) | 5 (5=80-100%) | 5 (5=80-100%) | –
3 | Cc1nn(C)c(=O)c(-c2c(F)ccc(Cl)c2CCc2ccccc2C#N)c1OC(=O)C(C)C [Compound A-3.029] | 4 (4=60-79%) | 1 (1=0-19%) | 5 (5=80-100%) | 2 (2=20-39%) | 2 (2=20-39%) | 5 (5=80-100%) | 4 (4=60-79%) | 5 (5=80-100%) | 3 (3=40-59%) | 3 (3=40-59%) | 2 (2=20-39%) | 2 (2=20-39%) | –
4 | CC(=O)Nc1cc(CCc2c(Cl)ccc(F)c2-c2c(O)c(C)nn(C)c2=O)ccn1 [Compound A-1.044] | 5 (5=80-100%) | 3 (3=40-59%) | 0 | 4 (4=60-79%) | 5 (5=80-100%) | 5 (5=80-100%) | 5 (5=80-100%) | 5 (5=80-100%) | 3 (3=40-59%) | 1 (1=0-19%) | 2 (2=20-39%) | 5 (5=80-100%) | –
5 | Cc1nn(C)c(=O)c(-c2c(F)ccc(Cl)c2CCc2ccccc2C#N)c1O [Compound A-1.029] | 4 (4=60-79%) | 2 (2=20-39%) | 5 (5=80-100%) | 4 (4=60-79%) | 4 (4=60-79%) | 5 (5=80-100%) | 3 (3=40-59%) | 5 (5=80-100%) | 5 (5=80-100%) | 1 (1=0-19%) | 2 (2=20-39%) | 1 (1=0-19%) | –
6 | Cc1nn(C)c(=O)c(-c2c(F)ccc(Cl)c2CCc2ccc(C#N)cc2)c1OC(=O)C(C)C [Compound A-3.036, [5-[3-Chloro-2-[2-(4-cyanophenyl)ethyl]-6-fluoro-phenyl]-1,3-dimethyl-6-oxo-pyridazin-4-yl] 2-methylpropanoate] | 5 (5=80-100%) | 4 (4=60-79%) | 5 (5=80-100%) | 4 (4=60-79%) | 4 (4=60-79%) | 5 (5=80-100%) | 5 (5=80-100%) | 5 (5=80-100%) | 5 (5=80-100%) | 5 (5=80-100%) | 5 (5=80-100%) | 5 (5=80-100%) | –
